Test results as given in US20220062240A1, “METHODS OF TREATING CANCER USING A CLK INHIBITOR” (BioSplice Therapeutics, Inc., priority 2018, published 2022).
Like-named read-outs stand apart in the source and are kept apart here.

Experiments:
Format in all cases: cell-based
[1] = test system: pancreatic cancer (8 cell lines); test: CellTiter-Glo Viability Assay, pancreatic cancer; settings: Homo sapiens, inhibition of cancer cell proliferation
[2] = test system: haematopoietic & lymphoid tumors (13 cell lines); test: CellTiter-Glo Viability Assay, haematopoietic & lymphoid tumors; settings: Homo sapiens, inhibition of cancer cell proliferation
[3] = test system: prostate cancer (5 cell lines); test: CellTiter-Glo Viability Assay, prostate cancer; settings: Homo sapiens
[4] = test system: ovarian cancer (4 cell lines); test: CellTiter-Glo Viability Assay, ovarian cancer; settings: Homo sapiens, inhibition of cancer cell proliferation
[5] = test system: DU4475; test: CellTiter-Glo Viability Assay, breast cancer; settings: Homo sapiens, DU-4475, 96 h; DU4475, breast cancer, four days; read-out: EC50
[6] = test system: HCC1599; test: CellTiter-Glo Viability Assay, breast cancer; settings: Homo sapiens, 96 h; HCC1599, breast cancer, four days; read-out: EC50
[7] = test system: MDA-MB-231-Luc; test: CellTiter-Glo Viability Assay, breast cancer; settings: Homo sapiens, 96 h; MDA-MB-231-Luc, breast cancer, four days; read-out: EC50
[8] = test system: MCF7; test: CellTiter-Glo Viability Assay, breast cancer; settings: Homo sapiens, 96 h; MCF7, breast cancer, four days; read-out: EC50
[9] = test system: CAMA1; test: CellTiter-Glo Viability Assay, breast cancer; settings: Homo sapiens, CAMA-1, 96 h; CAMA1, breast cancer, four days; read-out: EC50
[10] = test system: T47D; test: CellTiter-Glo Viability Assay, breast cancer; settings: Homo sapiens, 96 h, breast cancer, four days, read-out: EC50
[11] = test system: ZR-75-1; test: CellTiter-Glo Viability Assay, breast cancer; settings: Homo sapiens, 96 h; ZR-75-1, breast cancer, four days; read-out: EC50
[12] = test system: BT-549; test: CellTiter-Glo Viability Assay, breast cancer; settings: Homo sapiens, 96 h; BT-549, breast cancer, four days; read-out: EC50
[13] = test system: all 50 cell lines; test: CellTiter-Glo Viability Assay, average across all cell lines; settings: Homo sapiens; across all 50 cell lines; read-out: average EC50 for inhibition of cancer cell proliferation
Outline: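 Human cancer cell lines from breast, colorectal, haematopoietic/lymphoid, liver, lung, ovarian, pancreatic and prostate tumours were seeded at 300-3,000 cells/well and exposed to compound in duplicate for four days at 37° C, 5% CO2. Viable cells were measured by ATP luminescence; EC50 values came from dose-response curves.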

[14] = test system: lung cancer (4 cell lines); test: CellTiter-Glo Viability Assay, lung cancer; settings: Homo sapiens, inhibition of cancer cell proliferation
[15] = test system: liver cancer (3 cell lines); test: CellTiter-Glo Viability Assay, liver cancer; settings: Homo sapiens, inhibition of cancer cell proliferation
[16] = test system: colorectal cancer (6 cell lines); test: CellTiter-Glo Viability Assay, colorectal cancer; settings: Homo sapiens, inhibition of cancer cell proliferation
[17] = BXPC-3, BxPC3 cell line, read-out: Pancreatic cancer, EC50 BxPC3
[18] = CAPAN-1, Capan1 cell line, read-out: Pancreatic cancer, EC50 Capan1
[19] = Capan-2, Capan2 cell line, read-out: Pancreatic cancer, EC50 Capan2
[20] = MIA PaCa-2 cell line, read-out: Pancreatic cancer, EC50 MIA PaCa-2
[21] = PANC 05.04 cell line, read-out: Pancreatic cancer, EC50 PANC 05.04
[22] = PANC-1 cell line, read-out: Pancreatic cancer, EC50 PANC-1
[23] = UPAFII cell line, read-out: Pancreatic cancer, EC50 UPAFII
[24] = DND41, DND-41 cell line, read-out: Haematopoietic & Lymphoid tumors, EC50 (μM) DND-41
[25] = MV4-11, MV-4-11 cell line, read-out: Haematopoietic & Lymphoid tumors, EC50 (μM) MV-4-11
[26] = Rec1, REC-1 cell line, read-out: Haematopoietic & Lymphoid tumors, EC50 (μM) REC-1
[27] = SU-DHL-4, SUDHL4 cell line, read-out: Haematopoietic & Lymphoid tumors, EC50 (μM) SUDHL4
[28] = HL-60 cell line, read-out: Haematopoietic & Lymphoid tumors, EC50 (μM) HL-60
[29] = JM1 cell line, read-out: Haematopoietic & Lymphoid tumors, EC50 (μM) JM1
[30] = JURKAT, Clone E6-1 cell line, read-out: Haematopoietic & Lymphoid tumors, EC50 (μM) JURKAT, Clone E6-1
[31] = JeKo-1 cell line, read-out: Haematopoietic & Lymphoid tumors, EC50 (μM) JeKo-1
[32] = KASUMI-1 cell line, read-out: Haematopoietic & Lymphoid tumors, EC50 (μM) KASUMI-1
[33] = Loucy cell line, read-out: Haematopoietic & Lymphoid tumors, EC50 (μM) Loucy
[34] = MOLT-4 cell line, read-out: Haematopoietic & Lymphoid tumors, EC50 (μM) MOLT-4
[35] = TF-1 cell line, read-out: Haematopoietic & Lymphoid tumors, EC50 (μM) TF-1
[36] = TOLEDO cell line, read-out: Haematopoietic & Lymphoid tumors, EC50 (μM) TOLEDO
[37] = DU-145, read-out: Prostate cancer EC50 Du-145
[38] = PC-3, PC3 cell line, inhibition of cancer cell proliferation, read-out: Prostate cancer EC50 PC3
[39] = 22Rv1 cell line, inhibition of cancer cell proliferation, read-out: Prostate cancer EC50 22Rv1
[40] = LNCap clone FGC cell line, inhibition of cancer cell proliferation, read-out: Prostate cancer EC50 LNCap clone FGC
[41] = VCaP (Sigma) cell line, inhibition of cancer cell proliferation, read-out: Prostate cancer EC50 VCaP (Sigma)
[42] = PA-1, PA1 cell line, read-out: Ovarian cancer, EC50 (μM) PA1
[43] = TOV112D, TOV-112D cell line, read-out: Ovarian cancer, EC50 (μM) TOV-112D
[44] = OV-90 cell line, read-out: Ovarian cancer, EC50 (μM) OV-90
[45] = OVCAR-3 cell line, read-out: Ovarian cancer, EC50 (μM) OVCAR-3
[46] = A-427, A427 cell line, read-out: Lung cancer, EC50 (μM) A427
[47] = HCC78, HCC-78 cell line, read-out: Lung cancer, EC50 (μM) HCC-78
[48] = NCI-H460 cell line, read-out: Lung cancer, EC50 (μM) NCI-H460
[49] = NCI-H522 cell line, read-out: Lung cancer, EC50 (μM) NCI-H522
[50] = SNU-398, SNU398 cell line, read-out: Liver cancer, EC50 SNU398
[51] = HEPG2 cell line, read-out: Liver cancer, EC50 HEPG2
[52] = PLC/PRF/5 cell line, read-out: Liver cancer, EC50 PLC/PRF/5
[53] = HCT-116, HCT116 cell line, read-out: Colorectal cancer, EC50 (μM) HCT116
[54] = HT-29, HT29 cell line, read-out: Colorectal cancer, EC50 (μM) HT29
[55] = SW-620, SW620 cell line, read-out: Colorectal cancer, EC50 (μM) SW620
[56] = DLD-1 cell line, read-out: Colorectal cancer, EC50 (μM) DLD-1
[57] = SW48 cell line, read-out: Colorectal cancer, EC50 (μM) SW48
[58] = SW480 cell line, read-out: Colorectal cancer, EC50 (μM) SW480

`Cc1ncc(C(=O)Nc2cc3nc(-c4cnc(C)n4C)ccc3cn2)s1` [Compound 82] gave an EC50 [1, 17] of 199 nM, an EC50 [1, 18] of 269 nM and an EC50 [1, 19] of 579 nM. For the same molecule, the EC50 [1, 20] was 159 nM, the EC50 [1, 21] was 279 nM and the EC50 [1, 22] was 514 nM. It also gave an EC50 [1, 23] of 169 nM, an EC50 [2, 24] of 0.288 µM and an EC50 [2, 25] of 0.081 µM. For the same molecule, the EC50 [2, 26] was 0.103 µM, the EC50 [2, 27] was 0.292 µM and the EC50 [2, 28] was 0.221 µM. It also gave an EC50 [2, 29] of 0.137 µM, an EC50 [2, 30] of 0.169 µM and an EC50 [2, 31] of 0.125 µM. The EC50 [2, 32] was 0.163 µM, the EC50 [2, 33] was 0.206 µM and the EC50 [2, 34] was 0.233 µM. For the same molecule, the EC50 [2, 35] was 0.316 µM, the EC50 [2, 36] was 0.117 µM and the EC50 [3, 37] was 360 nM. For the same molecule, the EC50 [3, 38] was 287 nM, the EC50 [3, 39] was 218 nM and the EC50 [3, 40] was 293 nM. The EC50 [3, 41] was 770 nM, the EC50 [4, 42] was 0.175 µM and the EC50 [4, 43] was 0.147 µM. It also gave an EC50 [4, 44] of 0.628 µM, an EC50 [4, 45] of 0.073 µM and an EC50 [5] of 148 nM. It also gave an EC50 [6] of 154 nM, an EC50 [7] of 462 nM and an EC50 [8] of 942 nM. For the same molecule, the EC50 [9] was 244 nM, the EC50 [10] was 451 nM and the EC50 [11] was 440 nM. The EC50 [12] was 277 nM, the EC50 [13] was 282 nM and the EC50 [14, 46] was 0.236 µM. It also gave an EC50 [14, 47] of 0.308 µM, an EC50 [14, 48] of 0.257 µM and an EC50 [14, 49] of 0.19 µM. For the same molecule, the EC50 [15, 50] was 123 nM, the EC50 [15, 51] was 485 nM and the EC50 [15, 52] was 613 nM. It also gave an EC50 [16, 53] of 0.168 µM, an EC50 [16, 54] of 0.252 µM and an EC50 [16, 55] of 0.143 µM. It also gave an EC50 [16, 56] of 0.193 µM, an EC50 [16, 57] of 0.122 µM and an EC50 [16, 58] of 0.339 µM.

In the case of `O=C(Nc1ccc(OCCN2CCCC2)cc1)c1n[nH]cc1/C=C/c1cccnc1` [Compound 92], the EC50 [1, 17] is reported as greater than 10000 nM, the EC50 [1, 18] is reported as greater than 10000 nM and the EC50 [1, 19] is reported as greater than 10000 nM. It also gave an EC50 [1, 20] of 5860 nM, an EC50 [1, 21] greater than 10000 nM and an EC50 [1, 22] greater than 10000 nM. It also gave an EC50 [1, 23] greater than 10000 nM, an EC50 [2, 24] greater than 10 µM and an EC50 [2, 25] of 0.675 µM. For the same molecule, the EC50 [2, 26] was 2.25 µM, the EC50 [2, 27] was 4.87 µM and the EC50 [2, 28] was 7.97 µM. For the same molecule, the EC50 [2, 29] was 3.24 µM, the EC50 [2, 30] was 3.81 µM and the EC50 [2, 31] was 2.18 µM. It also gave an EC50 [2, 32] of 1.63 µM, an EC50 [2, 33] of 3.96 µM and an EC50 [2, 34] of 6.76 µM. The EC50 [2, 35] was 6.97 µM, the EC50 [2, 36] was 2.51 µM and the EC50 [3, 37] was greater than 10000 nM. The EC50 [3, 38] was greater than 10000 nM, the EC50 [3, 39] was 867 nM and the EC50 [3, 40] was 9150 nM. It also gave an EC50 [3, 41] of 5580 nM, an EC50 [4, 42] of 9.92 µM and an EC50 [4, 43] of 7.05 µM. It also gave an EC50 [4, 44] greater than 10 µM, an EC50 [4, 45] of 8.42 µM and an EC50 [5] of 6040 nM. For the same molecule, the EC50 [6] was 312 nM, the EC50 [7] was greater than 10000 nM and the EC50 [8] was greater than 10000 nM. The EC50 [9] was 8720 nM, the EC50 [10] was 867 nM and the EC50 [11] was greater than 10000 nM. For the same molecule, the EC50 [12] was 5510 nM, the EC50 [13] was 6830 nM and the EC50 [14, 46] was 8.56 µM. The EC50 [14, 47] was greater than 10 µM, the EC50 [14, 48] was greater than 10 µM and the EC50 [14, 49] was 7.15 µM. The EC50 [15, 50] was 4920 nM, the EC50 [15, 51] was greater than 10000 nM and the EC50 [15, 52] was greater than 10000 nM. For the same molecule, the EC50 [16, 53] was 6.22 µM, the EC50 [16, 54] was greater than 10 µM and the EC50 [16, 55] was 5.35 µM. It also gave an EC50 [16, 56] of 2.53 µM, an EC50 [16, 57] of 1.87 µM and an EC50 [16, 58] greater than 10 µM.
